Source: patent publication US20240166612A1, “ARYLTHIOETHER ACETAMIDE AND RELATED COMPOUNDS AND THEIR USE IN TREATING MEDICAL CONDITIONS” (X-Biotix Therapeutics, Inc., priority 2021, published 2024)
pIC50: −log10 of the molar value. Values after ≈ are worked out from the molar mass of the structure shown.

Key:
[1] = tested on: Wild-type P. aeruginosa PAO1; experiment: Broth microdilution MIC, wild-type P. aeruginosa PAO1; assay type: cell-based; conditions: Pseudomonas aeruginosa; wild-type P. aeruginosa PAO1, 37° C., 18 h; read-out: PAO1 WT MIC
Description: (§1) Exemplary compounds from the above Examples were tested to determine their minimum inhibitory concentration (MIC) for exemplary strains of Escherichia and Pseudomonas bacteria using broth microdilution methods. Assay procedures and results are described below.
(§2) Broth microdilution assays were conducted according to Clinical and Laboratory Standards Institute guidelines (CLSI, M07-A^11: Clinical and Laboratory Standards Institute. Methods for Dilution Antimicrobial Susceptibility Tests for Bacteria that Grow Aerobically; Approved Standard-11th Edition. Wayne, PA: CLSI, 2018). Briefly, bacterial suspensions were adjusted to a density equivalent to a 0.5 McFarland standard and diluted in sterile, cation-adjusted Mueller-Hinton broth (Beckton Dickinson) to yield a final inoculum between 2×10^5 and 8×10^5 colony-forming units (CFU)/mL. An inoculum volume of 98 μL was added to wells containing 2 μL of 2-fold serial dilutions of drug (prepared in DMSO). All inoculated microdilution trays were incubated in ambient air at 37° C. for 18 h. […] Performance of the assay was monitored by the use of laboratory quality-control strains (S. aureus ATCC 29213 and P. aeruginosa ATCC 27853) and levofloxacin, a compound with a defined MIC spectrum, in accordance with CLSI guidelines (CLSI, M100Ed29: Clinical and Laboratory Standards Institute. Performance Standards for Antimicrobial Susceptibility Testing, 29th Edition. Wayne, PA: CLSI, 2018).
(§3) Multiple enterobacteriaceae strains were tested, including both wild-type strains and multi-drug resistance pump deficient mutants. Specific strains tested included the following: • Wild-type P. aeruginosa PAO1, • P. aeruginosa PAO1 ΔmexABoprM—Disabled multi-drug efflux system Δ(MexAB-OprM), • P. aeruginosa PAO397—PAO1Δ(mexAB-oprM) Δ(mexCD-oprJ) Δ(mexEF-oprN) Δ(mexJK) Δ(mexXY) ΔopmH, • P. aeruginosa LESB58—Clinical isolate; colistin-resistant, isolated in the United Kingdom in 1988 from a patient with cystic fibrosis • E. coli JW0452-3 (BW25113 JacrA::kan)—Disabled multi-drug efflux system (AcrAB-TolC).
(§4) Experimental results are provided in Table 11, which provides MIC values for wild-type P. aeruginosa PAO1 (“PAO1 WT MIC”), P. aeruginosa PAO ΔmexABoprM (“PAO1 KO MIC”), P. aeruginosa PAO397 (“PAO397 KO MIC”), P. aeruginosa LESB58 (“LESB58”), and E. coli JW0452-3 (BW25113 JacrA::kan) (“E. coli KO MIC”).

[2] = tested on: P. aeruginosa PAO1 ΔmexABoprM; experiment: Broth microdilution MIC, P. aeruginosa PAO1 ΔmexABoprM; assay type: cell-based; conditions: Pseudomonas aeruginosa, PAO1, 18 h, read-out: PAO1 KO MIC
Description: as §1, §2, §3, §4

P. aeruginosa PAO397 = experiment: Broth microdilution MIC, P. aeruginosa PAO397; assay type: cell-based; conditions: Pseudomonas aeruginosa, PAO397, 18 h, read-out: PAO397 KO MIC
Description: as §1, §2, §3, §4

P. aeruginosa LESB58 = experiment: Broth microdilution MIC, P. aeruginosa LESB58; assay type: cell-based; conditions: Pseudomonas aeruginosa; P. aeruginosa LESB58 clinical isolate, colistin-resistant, 37° C., 18 h
Description: as §1, §2, §3, §4

[3] = target: T1, recombinant LpxA enzyme (P. aeruginosa) (Pseudomonas aeruginosa, UniProt Q9X6P4); experiment: LpxA in vitro substrate acylation assay with RapidFire MS analysis (P. aeruginosa); assay type: biochemical; conditions: P. aeruginosa enzyme 0.5 nM, PaACP-C10, 30 min
T1 sequence (Q9X6P4 1-258): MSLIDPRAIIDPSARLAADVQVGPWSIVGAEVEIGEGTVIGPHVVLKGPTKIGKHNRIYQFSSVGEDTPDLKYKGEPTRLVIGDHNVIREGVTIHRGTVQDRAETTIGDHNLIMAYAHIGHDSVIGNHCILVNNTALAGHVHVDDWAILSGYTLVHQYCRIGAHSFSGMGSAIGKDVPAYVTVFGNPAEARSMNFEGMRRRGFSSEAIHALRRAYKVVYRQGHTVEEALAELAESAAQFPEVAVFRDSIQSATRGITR
Description: Exemplary compounds from the above Examples were tested for ability to inhibit LpxA activity using an in vitro substrate acylation assay with RapidFire™ MS analysis. Assay procedures and results are described below.
Reactions were carried out in a final volume of 30 μL with 25 mM HEPES (pH 7.3), 150 mM NaCl, 2 mM DTT, 0.01% BSA, 5 μM UDP-GlcNac, recombinant LpxA enzyme (0.5 nM P. aeruginosa or 1.0 nM E. coli, both produced at Evotec), 0.5 μM acyl-transfer reagent (decanoyl P. aeruginosa acyl-carrier protein [PaACP-C10] or myristoyl E. coli acyl-carrier protein [EcACP-C1-4], both produced at Evotec), and 1% DMSO containing test compound. After 30 min incubation at room temperature, reactions were stopped by addition of 30 μL of 10% TCA in water.
Samples were centrifuged (4350 rpm, 4° C., 5 min), and then subjected to RapidFire™ MS analysis on an Agilent RapidFire 300 coupled to an Agilent 6460 triple-quadrupole mass spectrometer. Analytes were retained on a C4 (type A) cartridge using the following solvents and flow rates: • Pump 1—H2O with 5 mM NH4OAc at 2.0 mL/min, • Pump 2—MeOH/H2O (90/10) at 1.5 mL/min, • Pump 3—MeOH/H2O (90/10) at 0.5 mL/min, and • Pump 4—ACN (organic)/H2O (aqueous). Substrate and product of the reaction were detected in negative mode ESI-MS/MS by MRM (multiple reaction monitoring) of transitions 606.0/385.0 (UDP-GlcNAc substrate) and 776.2/385.0 (UDP-3-O—(R-3-hydroxydecanoyl)-GlcNAc product, for P. aeruginosa LpxA assay) or 832.2/385.0 (UDP-3-O—(R-3-hydroxymyristoyl)-GlcNAc product, for E. coli LpxA assay).
For IC50 determinations, peak areas of the substrate and product were compared to compute the proportion of product formed by the LpxA enzyme at each compound concentration.

SMILES	MIC [1]	MIC [2]	MIC (P. aeruginosa PAO397)	MIC (P. aeruginosa LESB58)	pIC50 [3]
CCc1ccccc1SCC(=O)N(Cc1ccc(C#N)cc1)Cc1nnc(N)o1 [Compound No. 10]	> 64 µg/mL	1 to 16 µg/mL (≈ 2.45 to 39.3 µM)	< 1 µg/mL		
N#Cc1ccc(CN(Cc2nnc(N)o2)C(=O)COc2cc(F)cc(F)c2Cl)cn1 [Compound No. 18, N-((5-amino-1,3,4-oxadiazol-2-yl)methyl)-2-(2-chloro-3,5-difluorophenoxy)-N-((6-cyanopyridin-3-yl)methyl)acetamide]	> 64 µg/mL	1 to 16 µg/mL (≈ 2.3 to 36.8 µM)	1 to 16 µg/mL (≈ 2.3 to 36.8 µM)	> 64 µg/mL	
Cc1nnc(CN(Cc2ccc(C#N)cc2)C(=O)CSc2ccccc2Cl)o1 [Compound No. 65, 2-(2-Chlorophenyl)sulfanyl-N-[(4-cyanophenyl)methyl]-N-[(5-methyl-1,3,4-oxadiazol-2-yl)methyl]acetamide]	> 64 µg/mL	> 64 µg/mL	1 to 16 µg/mL (≈ 2.42 to 38.8 µM)		
N#Cc1ccc(CN(Cc2nnc(O)o2)C(=O)CSc2ccccc2Cl)cc1 [Compound No. 66, 2-(2-Chlorophenyl)sulfanyl-N-[(4-cyanophenyl)methyl]-N-[(5-hydroxy-1,3,4-oxadiazol-2-yl)methyl]acetamide]	> 64 µg/mL	1 to 16 µg/mL (≈ 2.41 to 38.6 µM)	< 1 µg/mL		
N#Cc1ccc(CN(Cc2nnc(CN)o2)C(=O)CSc2ccccc2Cl)cc1 [Compound No. 67, N-[[5-(Aminomethyl)-1,3,4-oxadiazol-2-yl]methyl]-2-(2-chlorophenyl)sulfanyl-N-[(4-cyanophenyl)methyl]acetamide]	> 64 µg/mL	16 to 64 µg/mL (≈ 37.4 to 150 µM)	1 to 16 µg/mL (≈ 2.34 to 37.4 µM)		
N#Cc1ccc(CN(Cc2nnc(N)s2)C(=O)CSc2ccccc2Cl)cc1 [Compound No. 69, N-[(5-Amino-1,3,4-thiadiazol-2-yl)methyl]-2-(2-chlorophenyl)sulfanyl-N-[(4-cyanophenyl)methyl]acetamide]	> 64 µg/mL	1 to 16 µg/mL (≈ 2.33 to 37.2 µM)	1 to 16 µg/mL (≈ 2.33 to 37.2 µM)		
N#Cc1ccc(CN(Cc2nnc(N)o2)C(=O)CSc2ncccc2Cl)cn1 [compound 12]	> 64 µg/mL	1 to 16 µg/mL (≈ 2.4 to 38.5 µM)	< 1 µg/mL		
Nc1nnc(CN(Cc2ccc(=O)[nH]c2)C(=O)CSc2ccccc2Cl)o1 [compound 29]	> 64 µg/mL	> 64 µg/mL	1 to 16 µg/mL (≈ 2.46 to 39.4 µM)		
CCc1ccccc1OCC(=O)N(Cc1ccc(C#N)cc1)Cc1nnc(N)o1 [compound 32]	> 64 µg/mL	1 to 16 µg/mL (≈ 2.55 to 40.9 µM)	< 1 µg/mL		
N#Cc1ccc(CN(Cc2nnc(N)o2)C(=O)COc2cccc(Cl)c2Cl)c(F)c1 [compound 34]	> 64 µg/mL	16 to 64 µg/mL (≈ 35.5 to 142 µM)	< 1 µg/mL		
N#Cc1ccc(CN(Cc2c[nH]cn2)C(=O)CSc2ccccc2Cl)cc1 [compound 43]	> 64 µg/mL	> 64 µg/mL	1 to 16 µg/mL (≈ 2.52 to 40.3 µM)		
Nc1nnc(CN(Cc2ccc(S(N)(=O)=O)cc2)C(=O)CSc2ccccc2Cl)o1 [compound 47]	> 64 µg/mL	16 to 64 µg/mL (≈ 34.2 to 137 µM)	< 1 µg/mL		
Cc1cnc(CN(Cc2ccc(C#N)cc2)C(=O)CSc2ccccc2Cl)o1 [compound 72]	> 64 µg/mL		1 to 16 µg/mL (≈ 2.43 to 38.8 µM)		6.00 to 7.00
[2H]C([2H])(Oc1cc(F)cc(F)c1C([2H])([2H])C([2H])([2H])[2H])C(=O)N(Cc1nnc(N)o1)Cc1ccc([N+](=O)[O-])cc1F [compound 78]	1 to 16 µg/mL (≈ 2.12 to 33.9 µM)			1 to 16 µg/mL (≈ 2.12 to 33.9 µM)	> 7.70
CCc1c(F)cc(F)cc1OCC(=O)N(Cc1ccc2c(c1)CC(=O)N2)Cc1nnc(N)o1 [compound 83]	> 64 µg/mL			16 to 64 µg/mL (≈ 35 to 140 µM)	> 7.70
Nc1nnc(CN(Cc2ccc([N+](=O)[O-])cc2)C(=O)COc2cc(F)cc(F)c2C2CC2)o1 [compound 84]	16 to 64 µg/mL (≈ 34.8 to 139 µM)			1 to 16 µg/mL (≈ 2.18 to 34.8 µM)	> 7.70
Nc1nnc(CN(Cc2ccc([N+](=O)[O-])cc2F)C(=O)COc2cc(F)cc(F)c2C2CC2)o1 [compound 86]	16 to 64 µg/mL (≈ 33.5 to 134 µM)			1 to 16 µg/mL (≈ 2.09 to 33.5 µM)	> 7.70
Nc1nnc(CN(Cc2ccc([N+](=O)[O-])nc2)C(=O)COc2cc(F)cc(F)c2C2CC2)o1 [compound 87]	> 64 µg/mL			> 64 µg/mL	7.00 to 7.70
[2H]C([2H])(Oc1ccccc1C([2H])([2H])C([2H])([2H])[2H])C(=O)N(Cc1ccc(C#N)nc1)Cc1nnc(N)o1 [compound 88]	> 64 µg/mL			> 64 µg/mL	7.00 to 7.70
Nc1nnc(CN(Cc2csc([N+](=O)[O-])c2)C(=O)COc2cc(F)cc(F)c2C2CC2)o1 [compound 89]	> 64 µg/mL			> 64 µg/mL	7.00 to 7.70
[2H]C([2H])(Oc1ccccc1C([2H])([2H])C([2H])([2H])[2H])C(=O)N(Cc1nnc(N)o1)Cc1ccc([N+](=O)[O-])cc1F [compound 92]	> 64 µg/mL			16 to 64 µg/mL (≈ 36.7 to 147 µM)	7.00 to 7.70
[2H]C([2H])(Oc1ccccc1C([2H])([2H])C([2H])([2H])[2H])C(=O)N(Cc1ccc([N+](=O)[O-])cc1)Cc1nnc(N)o1 [compound 93]	> 64 µg/mL			> 64 µg/mL	7.00 to 7.70
CCc1c(F)cc(F)cc1OCC(=O)N(Cc1ccc([N+](=O)[O-])cc1)Cc1nnc(N)o1 [compound 95]	16 to 64 µg/mL (≈ 35.8 to 143 µM)			1 to 16 µg/mL (≈ 2.24 to 35.8 µM)	> 7.70
N#Cc1ccc(CN(Cc2nnc(N)o2)C(=O)COc2cc(F)cc(F)c2Br)c(F)c1 [compound 96]	16 to 64 µg/mL (≈ 32.2 to 129 µM)			1 to 16 µg/mL (≈ 2.02 to 32.2 µM)	> 7.70
N#Cc1ccc(CN(Cc2nnc(N)o2)C(=O)c2cc3cccc(Cl)c3s2)c(F)c1 [compound 97]	> 64 µg/mL			> 64 µg/mL	< 6.00
N#Cc1ccc(CN(CC(=O)N2CCOC[C@@H]2CN)C(=O)CSc2cc(F)cc(F)c2Cl)c(F)c1 [compound 106]	> 64 µg/mL			> 64 µg/mL	< 6.00
N#Cc1ccc(CN(CC(=O)N[C@@H](CN)C(=O)O)C(=O)CSc2cc(F)cc(F)c2Cl)c(F)c1 [compound 107]	> 64 µg/mL			> 64 µg/mL	6.00 to 7.00
CCc1cccc(OCC(=O)N(Cc2nnc(N)o2)Cc2ccc(C#N)cc2F)c1 [compound 110]	> 64 µg/mL			> 64 µg/mL	6.00 to 7.00
N#Cc1ccc(CN(Cc2nnc(O)o2)C(=O)CSc2cc(OCCN)ccc2Cl)c(F)c1 [compound 116]	> 64 µg/mL			> 64 µg/mL	< 6.00
